Data as given in the NIST ThermoML archive (doi:10.1016/j.tca.2018.10.018).

Experiments:
[1] = Liquid; for viscosity: Capillary tube (Ostwald / Ubbelohde) method; for mass density: Siemens Coriolis flowmeter
[2] = xn = mol fraction of the nth substance listed; conditions: Liquid, x2 = 0; for viscosity: Capillary tube (Ostwald / Ubbelohde) method; for mass density: Siemens Coriolis flowmeter

CCCCCCC [heptane]
[1]
Conditions	mass density, 298.15 K [kg/m3]	mass density, 308.15 K [kg/m3]	mass density, 318.15 K [kg/m3]	viscosity, 298.15 K [mPa·s]	viscosity, 308.15 K [mPa·s]	viscosity, 318.15 K [mPa·s]
100 kPa	680	670	662	0.404	0.367	0.33
3000 kPa	683	674	666	0.415	0.371	0.339
6000 kPa	686	677	669	0.42	0.385	0.347
9000 kPa	689	680	672	0.432	0.396	0.359
12000 kPa	691	683	675	0.446	0.404	0.369
15000 kPa	694	685	678	0.454	0.411	0.374

CCCCCCC [heptane] + CCCCCCCCCC(=O)OC
[2]
Conditions	mass density, 298.15 K [kg/m3]	mass density, 308.15 K [kg/m3]	mass density, 318.15 K [kg/m3]	viscosity, 298.15 K [mPa·s]	viscosity, 308.15 K [mPa·s]	viscosity, 318.15 K [mPa·s]
100 kPa	680	670	662	0.404	0.367	0.33
3000 kPa	683	674	666	0.415	0.371	0.339
6000 kPa	686	677	669	0.42	0.385	0.347
9000 kPa	689	680	672	0.432	0.396	0.359
12000 kPa	691	683	675	0.446	0.404	0.369
15000 kPa	694	685	678	0.454	0.411	0.374

CCCCCCCCCC(=O)OC [methyl decanoate]
[1]
Conditions	mass density, 298.15 K [kg/m3]	mass density, 308.15 K [kg/m3]	mass density, 318.15 K [kg/m3]	viscosity, 298.15 K [mPa·s]	viscosity, 308.15 K [mPa·s]	viscosity, 318.15 K [mPa·s]
100 kPa	868	860	853	1.934	1.628	1.38
3000 kPa	870	–	854	1.992	–	1.417
3010 kPa	–	862	–	–	1.675	–
6000 kPa	872	864	856	2.058	1.727	1.462
9000 kPa	874	866	859	2.123	1.779	1.491
12000 kPa	877	869	861	2.209	1.835	1.534
15000 kPa	878	871	863	2.272	1.888	1.578
